Laboratory results reported in patent publication US20070161644A1, “Erastin analogs and uses thereof” (priority 2005, published 2007).

Experiments:
[1] = tested on: BJ-TERT/LT/ST/RAS^V12 cells; assay: Cell death in the presence of a pan-caspase inhibitor; assay type: cell-based, human; settings: 50 μM inhibitor
[2] = tested on: cleaved, active caspase 3 in BJ-TERT/LT/ST/RAS^V12 cells; assay: Western blot for active caspase-3; assay type: cell-based, human; settings: western blot of lysates
Method: BJ-TERT/LT/ST/RAS^V12 cells were seeded prior to the experiment at 5×10^5 cells in 60 mm dishes. The cells were treated with 5 μg/ml erastin (9 μM) for 2, 4, 6, 8 or 10 hours. One dish was maintained for camptothecin treatment (0.4 μg/ml for 24 h) as a positive control. Cells were lysed after each time point in lysis buffer (50 mM HEPES KOH pH 7.4, […], 2 mM EDTA, 0.5% Triton X-100, 1.5 mM Na3VO4, 50 mM NaF, 10 mM sodium pyrophosphate, 10 mM sodium beta-glycerophosphate and protease inhibitor tablet (Roche)). Protein content was quantified using a Biorad protein assay reagent. Equal amounts of protein were resolved on 16% SDS-polyacrylamide gel. The electrophoresed proteins were transblotted onto a PVDF membrane, blocked with 5% milk and incubated with anti-active caspase-3 polyclonal antibody (BD Pharmingen) at 1:1500 dilution overnight at 4° C. The membrane was then incubated in anti-rabbit-HRP (Santa Cruz Biotechnology) at 1:3000 dilution for 1 hour and developed with an enhanced chemiluminescence mixture (NEN life science, Renaissance). To test for equivalent loading in each lane, blots were stripped, blocked, and probed with an anti-eIF-4E antibody (BD Transduction laboratories) at 1:1000 dilution.

[3] = tested on: BJ-TERT/LT/ST/RAS^V12 cells; assay: Annexin V-FITC apoptosis assay; assay type: cell-based, human; settings: camptothecin-treated (1 μM); untreated 6%
Method: BJ-TERT/LT/ST/RAS^V12 cells were seeded at 1×10^6 cells per dish in 100 mm dishes and allowed to grow overnight. Cells were treated with erastin (5 or 10 μg/ml) for 6, 8 or 11 h. A camptothecin-treated (0.4 μg/ml) control was maintained, treated at the time of seeding for 20 hours. After the treatment, cells were harvested with trypsin/EDTA and washed once with fresh medium containing serum and then twice with phosphate buffered saline. Cells were resuspended in 1× binding buffer (BD Pharmingen) at a concentration of 1×10^6 cells/ml. 100 μl (1×10^5 cells) was incubated with 5 μl of Annexin V-FITC (BD Pharmingen) and propidium iodiode (BD Pharmingen) for 15 minutes in the dark at room temperature. Then 400 μl of the 1× binding buffer was added and the cells analyzed by flow cytometry (Becton-Dickinson). Data were acquired and analyzed using Cellquest software.

[4] = tested on: BJ-TERT/LT/ST/RAS^V12 cells relative to BJ-TERT cells; assay: Alamar Blue viability assay, tumorigenic versus wild type cells; assay type: cell-based, human
Method: Alamar Blue is reduced by mitochondrial enzyme activity in viable cells, causing both colorimetric and fluorescent changes (Nociari et al., 1998, J. Immunol. Methods 13, 157-167). Cells were seeded at a density of 6000 cells (50 μl) per well in a 384-well black, clear bottom plate using a syringe bulk dispenser (Zymark). 10 μl was removed from a two-fold serially diluted erastin plate (6× final concentration) using a 384 fixed cannula head, making the final concentration 20 μg/ml in the well with highest concentration. The plates were incubated for 24 hours. Alamar Blue (Biosource International) was added to each well by diluting 1:10 and incubated for 16 hours at 37° C. Fluorescence intensity was determined using a Packard Fusion platereader with an excitation filter centered on 535 nm and an emission filter centered on 590 nm. Average percentage inhibition at each concentration was calculated. Error bars indicate one standard deviation.
The effect of erastin or erastin B on cell viability was measured using Alamar Blue as described in Example 3 in both tumorigenic BJ-TERT/LT/ST/RAS^V12 (BJELR) cells and wild type BJ-TERT (BJEH) cells. In this example, cell viability was measured at 1, 2, and 3 days after treatment with erastin or erastin B (data for days 1 and 3 not shown). Average percentage inhibition at each concentration was measured.
The effect on cell viability of each of the two isomers of Compound 20 was measured using the Alamar Blue assay described in Example 3 in both tumorigenic BJ-TERT/LT/ST/RAS^V12 cells and wild type BJ-TERT cells. Average percentage inhibition at each concentration was measured.
The effect on cell viability of erastin or Compound 21 was measured using the Alamar Blue assay as described in Example 3 in both tumorigenic BJ-TERT/LT/ST/RAS^V12 cells and in wild type BJ-TERT cells. Average percentage inhibition at each concentration was measured. […]

[5] = tested on: VDAC isoforms, Prohibitin and Ribophorin; assay: Pull-down with immobilized erastin derivatives; assay type: binding, human; settings: pull-down from lysates, mitochondrial extract or MonoQ fractions
Method: Pull-down assays using immobilized erastin and cell lysates were used in an initial attempt to identify erastin binding partners inside a cell. Initial pull-down experiments were performed with HEK293, BJEH and BJELR whole cell lysates. In those experiments, a methyl-amino derivative of erastin (ERA-A6) was immobilized to Affigel 10 and incubated with lysate under standard pull-down conditions. The beads were washed and either eluted with 100 μM erastin or 0.8% N-lauroylsarcosine (sarkosyl). The eluates were subjected to mass spectrometric analysis.
Since Prohibitin and the VDAC isoforms are all mitochondrial proteins, Applicants enriched potential erastin targets by isolating mitochondria from cell lysates. The isolated mitochondrial extracts were then used in erastin pull-down experiments. In those erastin pull-down experiments with the mitochondrial extracts, Prohibitin, VDAC and Ribophorin were also identified by Western blot. […] The pull-downs were performed with 0.25 mg total protein of the mitochondrial extract. The beads were incubated with the extracts for 1.5 h at 4° C. and then washed several times. Proteins bound to the immobilized Erastin derivatives were eluted with 50 μL of 0.8% N-lauroylsarcosine solution. […]
Ribophorin and Prohibitin are rather acidic proteins with a calculated PI of 5.57 (Prohibitin) and 5.96 (Ribophorin I). […]

In the case of `COC(=O)CC(NC(=O)OC(C)(C)C)C(=O)CF` (centres unmarked) [Boc-Asp(Ome)-fluoromethyl ketone], the “block of compound-induced cell death” value [1] was “partially blocked cell death induced by CPT, but not by erastin”.
`CC[C@@]1(O)C(=O)OCc2c1cc1n(c2=O)Cc2cc3ccccc3nc2-1` [Camptothecin, reference compound] was tested, and the “activated caspase 3” value [2] was “harbor activated caspase 3” and the “percentage of cells in M1 region (Annexin V staining)” value [3] was 38%.
For `CCOc1ccccc1-n1c(C(C)N2CCN(C(=O)COc3ccc(CN)cc3)CC2)nc2ccccc2c1=O` (centres unmarked) [Compound 19], the “lethality in BJ-TERT/LT/ST/RAS^V12 (BJELR) cells compared to BJ-TERT (BJEH) cells” value [4] was “selective lethality” and the “binding of cellular proteins to the immobilized compound” value [5] was “Prohibitin and Ribophorin were identified as binding to the Erastin beads”.
